# Reference: patent US12599610B2, “Solid dosage formulations of an orexin receptor antagonist” (Merck Sharp & Dohme LLC, priority 2012, dated 2026)
# Like-named read-outs stand apart in the source and are kept apart here.
# Experiment: clinical food-effect pharmacokinetic study in healthy human men, fasted vs high-fat breakfast
# Conditions: male, in vivo, po, 40 mg; for Tmax / Cmax / half-life: single oral 40 mg; for AUC(0-inf): single oral 40 mg dose of hot melt extrusion composition; for half-life: read-out: Apparent Terminal t1/2 (converted)
# Experimental: The pharmacokinetic profile of this composition of suvorexant was also tested by administering a single dose of the formulation to healthy human men. […] In the second period of this clinical study, the 7 subjects in each treatment groups were crossed over and received the other treatment.
# The fed/fasted GMR and 90% confidence intervals for AUC0-inf were 0.98 (0.90, 1.07).
structure (smiles),measurement,setting,value
"Cc1ccc(-n2nccn2)c(C(=O)N2CCN(c3nc4cc(Cl)ccc4o3)CC[C@H]2C)c1 [Suvorexant, 5-chloro-2-{(5R)-5-methyl-4-[5-methyl-2-(2H-1,2,3-triazol-2-yl)benzoyl]-1,4-diazepan-1-yl}-1,3-benzoxazole]",Tmax,"Tmax (Suvorexant Fed/Suvorexant Fasted), fed/fasted",1.5 h
same,AUC(0-inf),Fasted (8-hour fast),13.2 µM·h
same,AUC(0-inf),Fed (standard high-fat breakfast),13 µM·h
same,Cmax,Fasted,1000 nM
same,half-life,Fasted,10.9 h
same,Tmax,"Fasted, read-out: Tmax",2 h
same,Cmax,Fed (high-fat breakfast),1100 nM
same,half-life,Fed (high-fat breakfast),11.8 h
same,Tmax,"Fed (high-fat breakfast), read-out: Tmax",3 h
